system: Haemonchus contortus; assay: Test B: Haemonchus contortus burdens in orally infected mice after gavage of test compound; assay type: in vivo; settings: mice infected orally with 600 L3 Haemonchus contortus larvae; gavage 10.0 mg/kg on day 0; burdens on day 5 relative to vehicle-dosed controls
Protocol: For evaluating control of the barber pole worm (Haemonchus contortus), mice were each infected orally with 600 L3 Hlaemonchus contortus larvae on Day −3. On day 0, the infected mice were gavaged with a test compound (n=1) in a propylene glycol/glycerol formal solution at the rate of 10.0 mg/kg body weight. On day 5, the mice were euthanized and evaluated for Haemonchus contortus burdens relative to the vehicle-dosed controls. The range of means for the number of Haemonchus contortus in the various tests in which these compounds were studied was 55-184.

| Compound | % Efficacy |
| --- | --- |
| O=S(=O)(NCc1ccnc2ccccc12)c1ccc(Cc2ccccc2)s1 [Compound 80] | 80% |
| O=S(=O)(NCc1ccnc2ccccc12)c1ccc(COc2ccc(Cl)cc2)cc1 [Compound 34] | 71% |
| O=S(=O)(NCc1ccnc2ccccc12)c1ccc(C(F)c2ccccc2)cc1 (racemic) [Compound 76] | 87% |
| N#Cc1ccc(Oc2ccc(S(=O)(=O)NCc3ccnc4ccccc34)cc2)cc1 [Compound 9] | 72% |
| O=S(=O)(NCc1ccnc2ccccc12)c1ccc(CCc2ccccc2)cc1 [Compound 38] | 75% |
| COC(=O)c1ccc(Oc2ccc(S(=O)(=O)NCc3ccnc4ccccc34)cc2)c(Cl)c1 [Compound 27] | 78% |
| O=S(=O)(NCc1ccnc2ccccc12)c1ccc(C#Cc2ccccc2)s1 [Compound 74] | 60% |
| N#Cc1c(Cl)cccc1Oc1ccc(S(=O)(=O)NCc2ccnc3ccccc23)cc1 [Compound 2, 4-(3-chloro-2-cyanophenoxy)-N-(4-quinolinylmethyl)benzenesulfonamide] | 76% |
| O=S(=O)(NCc1ccnc2ccccc12)c1ccc(Cc2ccccc2)cc1 [Compound 5, 4-(phenylmethyl)-N-(4-quinolinylmethyl)benzenesulfonamide] | 69% |
| O=S(=O)(NCc1ccnc2ccccc12)c1ccc(C#Cc2ccccc2)cc1 [Compound 28] | 62% |
| O=S(=O)(NCc1ccnc2ccccc12)c1ccc(Nc2ccccc2)cc1 [Compound 70] | 89% |
| O=S(=O)(NCc1ccnc2ccccc12)c1cccc(Cc2ccc(F)cc2)c1 [Compound 92] | 73% |
| O=C(Nc1ccc(S(=O)(=O)NCc2ccnc3ccccc23)cc1)c1ccccc1 [Compound 53] | 61% |
| O=S(=O)(NCc1ccnc2ccccc12)c1ccc(Cc2ccc(F)cc2F)cc1 [Compound 60] | 76% |
| O=S(=O)(NCc1ccnc2ccccc12)c1ccc(OCc2ccc(Cl)cc2Cl)cc1 [Compound 7] | 61% |
| COc1ccccc1C(=O)Nc1ccc(S(=O)(=O)NCc2ccnc3ccccc23)cc1 [Compound 69] | 90% |
| CNC(=O)c1ccc(Oc2ccc(S(=O)(=O)NCc3ccnc4ccccc34)cc2)cc1 [Compound 51] | 74% |
| O=S(=O)(NCc1ccnc2ccccc12)c1ccc(Cc2ccccc2F)cc1 [Compound 91] | 93% |
| N#Cc1cc(Br)ccc1Oc1ccc(S(=O)(=O)NCc2ccnc3ccccc23)cc1 [Compound 31] | 66% |
| N#Cc1cccc(Oc2ccc(S(=O)(=O)NCc3ccnc4ccccc34)cc2)c1 [Compound 23] | 54% |
| O=S(=O)(NCc1ccnc2ccccc12)c1ccc(Cc2ccc(F)cc2)cc1 [Compound 59] | 86% |
| 4-(2-chloro-4-cyanophenoxy)-N-(quinolinylmethyl)benzenesulfonamide [Compound 15] | 79% |
| O=C(Nc1ccc(S(=O)(=O)NCc2ccnc3ccccc23)cc1)c1ccccc1Cl [Compound 56] | 78% |
| O=S(=O)(NCc1ccnc2ccccc12)c1cccc(Cc2ccccc2)c1 [Compound 64] | 70% |

system: Haemonchus contortus; assay: Test A: control of barber pole worm, eggs in culture media, mortality after 120 hours (L3 stage); assay type: cell-based; settings: not given
Protocol: For evaluating control of the barber pole worm (Haemonchus contortus), a test compound was solubilized in culture media (Earle's Balanced Salt Solution) containing Haemonchus contortus eggs to obtain a final test compound concentration of 2.0 ppm. The test unit was evaluated for mortality 120 hours later after which the eggs had hatched and had advanced to the L3 stage.

| Compound | mortality at 2 ppm |
| --- | --- |
| O=S(=O)(NCc1ccnc2ccccc12)c1ccc(Cc2ccc(F)cc2F)s1 [Compound 99] | 100% |
| O=S(=O)(NCc1ccnc2ccccc12)c1ccc(Cc2ccccc2)s1 [Compound 80] | 100% |
| O=S(=O)(NCc1ccnc2ccccc12)c1ccc(C#Cc2ccc(Cl)cc2Cl)s1 [Compound 73] | 100% |
| O=S(=O)(NCc1ccnc2ccccc12)c1ccc(C#Cc2ccccc2)s1 [Compound 74] | 100% |
| N#Cc1c(Cl)cccc1Oc1ccc(S(=O)(=O)NCc2ccnc3ccccc23)cc1 [Compound 2, 4-(3-chloro-2-cyanophenoxy)-N-(4-quinolinylmethyl)benzenesulfonamide] | 100% |
| O=S(=O)(NCc1ccnc2ccccc12)c1ccc(Cc2ccccc2)cc1 [Compound 5, 4-(phenylmethyl)-N-(4-quinolinylmethyl)benzenesulfonamide] | 100% |
| COC(=O)c1ccccc1Oc1ccc(S(=O)(=O)NCc2ccnc3ccccc23)cc1 [Compound 16, methyl 2-[4-[[(4-quinolinylmethyl)amino]sulfonyl]phenoxy]benzoate] | 100% |
| O=S(=O)(NCc1ccnc2ccccc12)c1cccc(Cc2ccc(F)cc2)c1 [Compound 92] | 100% |
| O=S(=O)(NCc1ccnc2ccccc12)c1ccc(C#Cc2ccccc2Cl)s1 [Compound 75] | 100% |
| O=S(=O)(NCc1ccnc2ccccc12)c1cccc(COc2ccc(Cl)cc2Cl)c1 [Compound 44] | 100% |
| N#Cc1ccccc1Oc1ccc(S(=O)(=O)NCc2ccnc3ccccc23)cn1 [Compound 41] | 100% |
| O=S(=O)(NCc1ccnc2ccccc12)c1ccc(COc2ccccc2)cc1Cl [Compound 37] | 100% |
| O=S(=O)(NCc1ccnc2ccccc12)c1cccc(COc2ccccc2)c1 [Compound 46] | 100% |
| O=S(=O)(NCc1ccnc2ccccc12)c1cccc(OCc2ccccc2)c1 [Compound 40] | 100% |
| O=S(=O)(NCc1ccnc2ccccc12)c1ccc(S(=O)(=O)c2ccccc2)s1 [Compound 36] | 100% |
| O=S(=O)(NCc1ccnc2ccccc12)c1cccc(Cc2ccccc2)c1 [Compound 64] | 100% |

Source: patent US20140113934A1, “HETEROCYCLIC COMPOUNDS FOR TREATING HELMINTH INFECTIONS” (E I DU PONT DE NEMOURS AND COMPANY, priority 2011, published 2014)
